Data set [1] concerns mouse peritoneal macrophages. Nature of the data set: Suppression of foaming of macrophages: cholesterol ester yield in mouse peritoneal macrophages loaded with liposomes. Type of data set: cell-based. Conditions: for activity at 5 µM: Mus musculus, Peritoneal macrophage, 16 h, read-out: CE yield (%). As for the experimental part: Activity of the compounds of the present invention for suppressing the foaming of macrophages, which triggers arterial sclerosis, was examined.
(1) In vitro experiment using mouse peritoneal macrophages,
15-Week old female ICR mice (Nippon SLC) were subjected to bleeding by cutting off their cervicalis, and Hanks buffer (Nippon Seiyaku) was injected into their peritoneal cavities. After abdominal regions of the mice were massaged, the buffer was recovered immediately, and then the resulting buffer was centrifuged at 1,000 r.p.m. for five minutes to collect peritoneal macrophages. Then, the collected macrophages were suspended in GTI medium (Wako Pure Chemical Industries), and inoculated onto a 24-well microtiter plate. After the macrophages were cultivated at 37° C. under 5% CO2 for two hours, the culture medium was changed with Dulbecco Modified Eagle Medium (MEM, Nippon Seiyaku). The macrophages were further cultivated at 37° C. under 5% CO2 for 16 hours, and then a test compound and liposomes were added to the culture.
1) Test compound: dissolved in DMSO (Wako Pure Chemical Industries),
2) Liposomes: PC/PS/DCP/CHOL=50/50/10/75 (nmol)
After cultivation was further continued at 37° C. under 5% CO2 for 16 hours, lipid fraction was extracted with chloroform and methanol. The extracted lipid fraction was dissolved in isopropyl alcohol, and the produced cholesterol ester (CE) was quantified by an enzymatic luminescence method. Yield of the cholesterol ester was calculated as a relative ratio based on yield of the control as 100% where no test compound was added.

Data set [2] can be described thus: AUC (area under the plasma concentration) after oral administration to mice.
Procedure: (§1) The compounds of the present invention were orally administered to mice to evaluate AUC (area under the plasma concentration).
(§2) 8-week old BALB/cA male mice (Charles River Japan) were conditioned for one week after arrival and then used. Each test substance was dispersed in a medium containing 10% macrogol (Yoshida Seiyaku) and 90% physiological saline (Hikari Seiyaku) to prepare 5 mg/ml test substance suspension. Each prepared suspension was orally administered to 6 mice (30 mg/kg) at the same time, and cervical spine of one mouse was dislocated at each time, i.e., immediately after the administration, and 30 minutes, 1 hour, 2 hours, 4 hours and 6 hours after the administration. The whole blood was collected from abdominal aorta and blood level of the test substance was determined by liquid chromatography.
The conditions of data set [3]: mouse, in vivo, po, 30 mg/kg.
Procedure: as §1, §2
The mark [4] stands for this setting: test compound 5 μM, cholesterol ester yield relative to control without test compound = 100%, smaller value = more potent suppression.
The mark [5] stands for this setting: male, BALB/cA, mouse, plasma, po, 30 mg/kg.

The text below walks through data of patent publication US6787561B1, “Benzimidazole compounds” (Fuji Photo Film Co., Ltd., priority 1999, dated 2004).

Where two headings read alike, the source gives them in different places.

As for `c1ccc2[nH]c(SCCCCCOc3ccncc3)nc2c1` [Compound 19, 2-(5-(4-pyridyloxy)pentylthio)benzimidazole], the activity at 5 µM in data set [1] (setting [4]) was determined as 4.2%. The compound also yielded an AUC in data set [2] (setting [5]) of 5520 ng·h/mL.

For the compound `COc1ccc2nc(SCCCCCOc3ccccn3)[nH]c2c1` [Compound 17, 5-methoxy-2-(5-(2-pyridyloxy)pentylthio)benzimidazole], the activity at 5 µM in data set [1] (setting [4]) came to 14%. In addition, the area under the curve (AUC) in data set [2] (setting [5]) came out at 1220 ng·h/mL.

Consider `c1ccc2[nH]c(SCCCCCCNc3nc4ccccc4o3)nc2c1` [Compound 32, 2-(6-(2-benzoxazolylamino)hexylthio)benzimidazole], for which, in data set [1] (setting [4]), the activity at 5 µM is 12%.

`c1ccc2[nH]c(SCCCCCOc3nccs3)nc2c1` [Compound 5]: the activity at 5 µM in data set [1] (setting [4]) came out at 11%. For the same compound, the AUC in data set [2] (setting [5]) was 100 ng·h/mL.

In the case of `CC(=O)Nc1ccc2nc(SCCCCCOc3ccccn3)[nH]c2c1` [Compound 18, 5-acetylamino-2-(5-(2-pyridyloxy)pentylthio)benzimidazole], the activity at 5 µM in data set [1] (setting [4]) amounted to 19%.

In the case of `c1ccc2[nH]c(SCCOCCOCCNc3nc4ccccc4o3)nc2c1` [Compound 36, 2-(2-(2-(2-(2-benzoxazolylamino)ethoxy)ethoxy)ethylthio)-benzimidazole], the activity at 5 µM in data set [1] (setting [4]) was 12%. In data set [2] (setting [5]), the AUC turned out to be 680 ng·h/mL.

Take `c1ccc(OCCCCCCSc2nc3ccccc3[nH]2)nc1` [Compound 12, 2-(6-(2-pyridyloxy)hexylthio)benzimidazole]: in data set [1] (setting [4]), the activity at 5 µM came to 13%.

On to `c1ccc(OCCCCCCCSc2nc3ccccc3[nH]2)nc1` [Compound 13, 2-(7-(2-pyridyloxy)heptylthio)benzimidazole], for which the activity at 5 µM in data set [1] (setting [4]) worked out at 20%. Also, in data set [2] (setting [5]), the AUC came out at 150 ng·h/mL.

As to `c1ccc(OCCCCCSc2nc3ccccc3[nH]2)nc1` [Compound 1, 2-(5-(2-pyridyloxy)pentylthio)benzimidazole], the activity at 5 µM in data set [1] (setting [4]) amounted to 4.1%. Further, the AUC in data set [2] (setting [5]) is 340 ng·h/mL.

In the case of `c1ccc2[nH]c(SCCCCCNc3nc[nH]n3)nc2c1` [Compound 29, 2-(5-(3-(1,2,4-triazyl)amino)pentylthio)benzimidazole], in data set [1] (setting [4]), the “CE yield (%)” value is 12%. This compound also came in with an AUC in data set [3] of 180 ng·h/mL.

With `c1ccc2[nH]c(SCCCCCNc3nc4ccccc4s3)nc2c1` [Compound 30, 2-(5-(2-benzothiazolylamino)pentylthio)benzimidazole], the activity at 5 µM in data set [1] (setting [4]) came out at 4.2%. In data set [2] (setting [5]), the AUC was determined as 230 ng·h/mL.

Regarding `c1cnc(OCCCCCSc2nc3ccccc3[nH]2)nc1` [Compound 6], in data set [1] (setting [4]), the activity at 5 µM came out at 12%. Further, the AUC in data set [2] (setting [5]) worked out at 680 ng·h/mL.

As for `c1ccc(OCCCCCCCCSc2nc3ccccc3[nH]2)nc1` [Compound 10, 2-(8-(2-pyridyloxy)octylthio)benzimidazole], the activity at 5 µM in data set [1] (setting [4]) turned out to be 12%.

With “2-(5-(1-phenyltetrazolyl-5-oxy)pentylthio)benzimidazole [Compound 2]”, in data set [1], the “CE yield (%)” value was found to be 21%. The AUC in data set [2] (oral 30 mg/kg suspension, BALB/cA male mice, blood level 0 to 6 hours by liquid chromatography) amounted to 1220 ng·h/mL.

Turning to `C=C(C)n1c(OCCCCCSc2nc3ccccc3[nH]2)nc2ccccc21` [Compound 20, 2-(5-(2-benzimidazolylthio)pentyloxy)-1-isopropenyl-benzimidazole], the activity at 5 µM in data set [1] (setting [4]) was 22%.

As for `CCC(=O)n1c(SCCCCCOc2ccccn2)nc2ccccc21` [Compound 24, 1-Propionyl-2-(5-(2-pyridyloxy)pentylthio)benzimidazole], in data set [1] (setting [4]), the activity at 5 µM amounted to 25%.

As for `c1ccc(OCCCCSc2nc3ccccc3[nH]2)nc1` [Compound 11, 2-(4-(2-pyridyloxy)butylthio)benzimidazole], in data set [1] (setting [4]), the activity at 5 µM came out at 18%. The compound also returned an AUC in data set [2] (setting [5]) of 240 ng·h/mL.

Consider `Clc1cc2nc(SCCCCCOc3ccccn3)[nH]c2cc1Cl` [Compound 15, 5,6-dichloro-2-(5-(2-pyridyloxy)pentylthio)benzimidazole], for which the activity at 5 µM in data set [1] (setting [4]) was found to be 18%. In data set [2] (setting [5]), the AUC was found to be 680 ng·h/mL.

Turning to `c1ccc2[nH]c(SCCCCCCOc3ccncc3)nc2c1` [Compound 25, 2-(6-(4-pyridyloxy)hexylthio)benzimidazole], the activity at 5 µM in data set [1] (setting [4]) amounted to 2.8%. For the same compound, the AUC in data set [2] (setting [5]) stood at 1210 ng·h/mL.

Consider `Cc1ccc2nc(SCCCCCOc3ccccn3)[nH]c2c1` [Compound 16, 5-methyl-2-(5-(2-pyridyloxy)pentylthio)benzimidazole], for which the activity at 5 µM in data set [1] (setting [4]) is 14%. Besides, in data set [2] (setting [5]), the AUC stood at 1410 ng·h/mL.

With `Cn1c(SCCCCCOc2ccccn2)nc2ccccc21` [Compound 23, 1-Methyl-2-(5-(2-pyridyloxy)pentylthio)benzimidazole], in data set [1] (setting [4]), the activity at 5 µM was 21%. Besides, the area under the curve (AUC) in data set [2] (setting [5]) came out at 860 ng·h/mL.

With `COCn1c(SCCCCCNc2cnccn2)nc2ccccc21` [Compound 28, 1-methoxymethyl-2-(5-(N-(2-pyrazyl)amino)pentylthio)-benzimidazole], in data set [1] (setting [4]), the “CE yield (%)” value is on record as 24%. The compound further had an AUC in data set [3] of 410 ng·h/mL.

As to `Cn1c(OCCCCCSc2nc3ccccc3[nH]2)nc2ccccc21` [Compound 9], in data set [1] (setting [4]), the activity at 5 µM came out at 6.2%. In addition, in data set [2] (setting [5]), the AUC was found to be 110 ng·h/mL.

As for `c1ccc2[nH]c(SCCOCCNc3nc4ccccc4o3)nc2c1` [Compound 35, 2-(2-(2-(2-benzoxazolylamino)ethoxy)ethylthio)-benzimidazole], the activity at 5 µM in data set [1] (setting [4]) stood at 9.7%.

Regarding `c1ccc2[nH]c(OCCCCCSc3nc4ccccc4[nH]3)nc2c1` [Compound 21, 2-(5-(2-benzimidazolylthio)pentyloxy)benzimidazole], in data set [1] (setting [4]), the activity at 5 µM stood at 18%. The compound also registered an AUC in data set [2] (setting [5]) of 2420 ng·h/mL.

A word on the AUC: it is the area under the concentration-time curve, a measure of exposure. A high value points to high exposure.
